EC50 data for seven molecules are collected here from US20140031278A1, “Novel Glucagon Analogues” (NOVO NORDISK A/S, priority 2011, published 2014).

*1 amine or outer side, *2 acyl side, *3 side chain or, on linkers, in order; H or OH if unused. Where a SMILES comes first, the peptide text is derived from it. Side-chain parts run from the residue outwards. γGlu = O=C(O)[C@H](CCC(=O)[*:2])N[*:1]

The target in the assay is T1, glucagon receptor (Homo sapiens, UniProt P47871).
T1 construct: expressed in transfected cells
T1 sequence (P47871 26-477): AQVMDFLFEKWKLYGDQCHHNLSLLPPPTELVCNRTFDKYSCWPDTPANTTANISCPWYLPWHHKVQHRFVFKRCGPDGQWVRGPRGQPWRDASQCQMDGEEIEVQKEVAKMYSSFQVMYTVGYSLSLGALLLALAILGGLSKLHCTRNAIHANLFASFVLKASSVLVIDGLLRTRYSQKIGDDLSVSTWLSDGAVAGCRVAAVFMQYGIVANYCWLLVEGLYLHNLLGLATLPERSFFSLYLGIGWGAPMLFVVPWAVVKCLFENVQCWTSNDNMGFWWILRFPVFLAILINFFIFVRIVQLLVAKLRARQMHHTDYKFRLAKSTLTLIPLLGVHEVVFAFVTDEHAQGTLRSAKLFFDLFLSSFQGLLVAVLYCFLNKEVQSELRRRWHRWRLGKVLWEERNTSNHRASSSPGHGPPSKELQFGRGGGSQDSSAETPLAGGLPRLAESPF
Kind of assay: Assay (I) Glucagon activity (cAMP biosensor, FLIPR). It counts as cell-based. The settings on record: HEK-293 cells with cloned glucagon receptor and cAMP biosensor; end point after 6 minutes. In outline:
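HEK-293 cells expressing glucagon receptor with membrane cAMP biosensor (ACTOne), calcium-dye loaded with probenecid and a PDE inhibitor.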
The term EC50 denotes the concentration giving half of the maximal effect. Higher therefore signals lower potency in that assay. `CC(=O)N[C@@H](CCC(=O)N[C@@H](CCC(=O)N[C@@H](CCC(=O)N[C@@H](CCC(=O)NCCCC[C@H](NC(=O)[C@@H](NC(=O)[C@H](Cc1ccccc1)NC(=O)[C@H](CC(=O)O)NC(=O)[C@H](CCC(N)=O)NC(=O)[C@H](C)NC(=O)[C@H](CCCNC(=N)N)NC(=O)[C@H](CCCNC(=N)N)NC(=O)[C@@H](NC(=O)[C@H](CC(=O)O)NC(=O)[C@H](CC(C)C)NC(=O)[C@H](Cc1ccc(O)cc1)NC(=O)[C@H](CCCNC(=N)N)NC(=O)[C@H](CO)NC(=O)[C@H](Cc1ccc(O)cc1)NC(=O)[C@H](CC(=O)O)NC(=O)[C@H](CO)NC(=O)[C@@H](NC(=O)[C@H](Cc1ccccc1)NC(=O)[C@@H](NC(=O)CNC(=O)[C@H](CCC(N)=O)NC(=O)[C@H](CO)NC(=O)[C@@H](N)Cc1c[nH]cn1)[C@@H](C)O)[C@@H](C)O)[C@@H](C)O)C(C)C)C(=O)N[C@@H](Cc1c[nH]c2ccccc12)C(=O)N[C@@H](CC(C)C)C(=O)N[C@@H](CC(C)C)C(=O)N[C@@H](CO)C(=O)N[C@H](C(=O)N1CCC[C@H]1C(=O)O)[C@@H](C)O)C(=O)O)C(=O)O)C(=O)O)C(=O)O` [Example 26] (H-HSQGTFTSDYSRYLDTRRAQDFVK([γGlu-γGlu-γGlu-γGlu-Ac])WLLSTP-OH) yielded an EC50 of 0.012 nM. The value for `CC(=O)N[C@@H](CCC(=O)N[C@@H](CCC(=O)N[C@@H](CCC(=O)N[C@@H](CCC(=O)NCCCC[C@H](NC(=O)[C@@H](NC(=O)[C@H](Cc1ccccc1)NC(=O)[C@H](CC(=O)O)NC(=O)[C@H](CCC(N)=O)NC(=O)[C@H](C)NC(=O)[C@H](CCCNC(=N)N)NC(=O)[C@H](CCCNC(=N)N)NC(=O)[C@H](CC(C)C)NC(=O)[C@H](CC(=O)O)NC(=O)[C@H](CC(C)C)NC(=O)[C@H](Cc1ccc(O)cc1)NC(=O)[C@H](CCCNC(=N)N)NC(=O)[C@H](CO)NC(=O)[C@H](Cc1ccc(O)cc1)NC(=O)[C@H](CC(=O)O)NC(=O)[C@H](CO)NC(=O)[C@@H](NC(=O)[C@H](Cc1ccccc1)NC(=O)[C@@H](NC(=O)CNC(=O)[C@H](CCC(N)=O)NC(=O)[C@H](CO)NC(=O)[C@@H](N)Cc1c[nH]cn1)[C@@H](C)O)[C@@H](C)O)C(C)C)C(=O)N[C@@H](Cc1c[nH]c2ccccc12)C(=O)N[C@@H](CC(C)C)C(=O)N[C@@H](CC(C)C)C(=O)N[C@@H](CO)C(=O)N[C@H](C(=O)N1CCC[C@H]1C(=O)O)[C@@H](C)O)C(=O)O)C(=O)O)C(=O)O)C(=O)O` [Example 40, N^ε24-[(4S)-4-[[(4S)-4-[[(4S)-4-[[(4S)-4-acetamido-4-carboxybutanoyl]amino]-4-carboxybutanoyl]amino]-4-carboxybutanoyl]amino]-4-carboxybutanoyl]-[Arg12,Leu16,Lys24,Leu27,Ser28]-Glucagonyl-Pro] (H-HSQGTFTSDYSRYLDLRRAQDFVK([γGlu-γGlu-γGlu-γGlu-Ac])WLLSTP-OH) was 0.003 nM; that for `CC(=O)N[C@@H](CCC(=O)N[C@@H](CCC(=O)N[C@@H](CCC(=O)N[C@@H](CCC(=O)NCCCC[C@H](NC(=O)[C@@H](NC(=O)[C@H](Cc1ccccc1)NC(=O)[C@H](CC(=O)O)NC(=O)[C@H](C)NC(=O)[C@H](C)NC(=O)[C@H](CCCNC(=N)N)NC(=O)[C@H](CCCNC(=N)N)NC(=O)[C@@H](NC(=O)[C@H](CC(=O)O)NC(=O)[C@H](CC(C)C)NC(=O)[C@H](Cc1ccc(O)cc1)NC(=O)[C@H](CCCCN)NC(=O)[C@H](CO)NC(=O)[C@H](Cc1ccc(O)cc1)NC(=O)[C@H](CC(=O)O)NC(=O)[C@H](CO)NC(=O)[C@@H](NC(=O)[C@H](Cc1ccccc1)NC(=O)[C@@H](NC(=O)CNC(=O)[C@H](Cc1c[nH]cn1)NC(=O)[C@H](CO)NC(=O)[C@@H](N)Cc1c[nH]cn1)[C@@H](C)O)[C@@H](C)O)C(C)C)C(C)C)C(=O)N[C@@H](Cc1c[nH]c2ccccc12)C(=O)N[C@@H](CC(C)C)C(=O)N[C@@H](CC(C)C)C(=O)N[C@@H](CO)C(=O)N[C@H](C(=O)O)[C@@H](C)O)C(=O)O)C(=O)O)C(=O)O)C(=O)O` [Example 10, N^ε24-[(4S)-4-[[(4S)-4-[[(4S)-4-[[(4S)-4-acetamido-4-carboxybutanoyl]amino]-4-carboxybutanoyl]amino]-4-carboxybutanoyl]amino]-4-carboxybutanoyl]-[His3,Val16,Ala20,Lys24,Leu27,Ser28]-Glucagon] (H-HSHGTFTSDYSKYLDVRRAADFVK([γGlu-γGlu-γGlu-γGlu-Ac])WLLST-OH) was 0.0167 nM; that for `CC(=O)N[C@@H](CCC(=O)N[C@@H](CCC(=O)N[C@@H](CCC(=O)N[C@@H](CCC(=O)NCCCC[C@H](NC(=O)[C@@H](NC(=O)[C@H](Cc1ccccc1)NC(=O)[C@H](CC(=O)O)NC(=O)[C@H](CCC(N)=O)NC(=O)[C@H](C)NC(=O)[C@H](CCCNC(=N)N)NC(=O)[C@H](CCCNC(=N)N)NC(=O)[C@H](CC(C)C)NC(=O)[C@H](CC(=O)O)NC(=O)[C@H](CC(C)C)NC(=O)[C@H](Cc1ccc(O)cc1)NC(=O)[C@H](CCCCN)NC(=O)[C@H](CO)NC(=O)[C@H](Cc1ccc(O)cc1)NC(=O)[C@H](CC(=O)O)NC(=O)[C@H](CO)NC(=O)[C@@H](NC(=O)[C@H](Cc1ccccc1)NC(=O)[C@@H](NC(=O)CNC(=O)[C@H](CCC(N)=O)NC(=O)[C@@H](NC(=O)[C@@H](N)Cc1c[nH]cn1)[C@@H](C)O)[C@@H](C)O)[C@@H](C)O)C(C)C)C(=O)N[C@@H](Cc1c[nH]c2ccccc12)C(=O)N[C@@H](CC(C)C)C(=O)N[C@@H](CC(C)C)C(=O)N[C@@H](CO)C(=O)N[C@H](C(=O)O)[C@@H](C)O)C(=O)O)C(=O)O)C(=O)O)C(=O)O` [Example 41, N^e24-[(4S)-4-[[(4S)-4-[[(4S)-4-[[(4S)-4-acetamido-4-carboxybutanoyl]amino]-4-carboxybutanoyl]amino]-4-carboxybutanoyl]amino]-4-carboxybutanoyl]-[Thr^2,Leu^16,Lys^24,Leu^27,Ser^28]-Glucagon] (H-HTQGTFTSDYSKYLDLRRAQDFVK([γGlu-γGlu-γGlu-γGlu-Ac])WLLST-OH) was 0.003 nM. Next, `CC(=O)N[C@@H](CCC(=O)N[C@@H](CCC(=O)N[C@@H](CCC(=O)N[C@@H](CCC(=O)NCCCC[C@H](NC(=O)[C@@H](NC(=O)[C@H](Cc1ccccc1)NC(=O)[C@H](CCC(=O)O)NC(=O)[C@H](CCC(N)=O)NC(=O)[C@H](C)NC(=O)[C@H](CCCNC(=N)N)NC(=O)[C@H](CCCNC(=N)N)NC(=O)[C@H](CO)NC(=O)[C@H](CCC(=O)O)NC(=O)[C@H](CC(C)C)NC(=O)[C@H](Cc1ccc(O)cc1)NC(=O)[C@H](CCCCN)NC(=O)[C@H](CO)NC(=O)[C@@H](NC(=O)[C@H](CC(=O)O)NC(=O)[C@H](CO)NC(=O)[C@@H](NC(=O)[C@H](Cc1ccccc1)NC(=O)[C@@H](NC(=O)CNC(=O)[C@H](CCC(N)=O)NC(=O)[C@H](CO)NC(=O)[C@@H](N)Cc1c[nH]cn1)[C@@H](C)O)[C@@H](C)O)C(C)C)C(C)C)C(=O)N[C@@H](Cc1c[nH]c2ccccc12)C(=O)N[C@@H](CC(C)C)C(=O)N[C@@H](CC(C)C)C(=O)N[C@@H](CO)C(=O)N[C@H](C(=O)O)[C@@H](C)O)C(=O)O)C(=O)O)C(=O)O)C(=O)O` [Example 45, N^ε24-[(4S)-4-[[(4S)-4-[[(4S)-4-[[(4S)-4-acetamido-4-carboxybutanoyl]amino]-4-carboxybutanoyl]amino]-4-carboxybutanoyl]amino]-4-carboxybutanoyl]-[Val^10,Glu^15,Glu^21,Lys^24,Leu^27,Ser^28]-Glucagon] (H-HSQGTFTSDVSKYLESRRAQEFVK([γGlu-γGlu-γGlu-γGlu-Ac])WLLST-OH): 0.027 nM; `CC(=O)N[C@@H](CCC(=O)N[C@@H](CCC(=O)N[C@@H](CCC(=O)N[C@@H](CCC(=O)NCCCC[C@H](NC(=O)[C@@H](NC(=O)[C@H](Cc1ccccc1)NC(=O)[C@H](CC(=O)O)NC(=O)[C@H](CCC(N)=O)NC(=O)[C@H](C)NC(=O)[C@H](CCCNC(=N)N)NC(=O)[C@H](CCCNC(=N)N)NC(=O)[C@H](CO)NC(=O)[C@H](CC(=O)O)NC(=O)[C@H](CC(C)C)NC(=O)[C@H](Cc1ccc(O)cc1)NC(=O)[C@H](CCCCN)NC(=O)[C@H](CO)NC(=O)[C@H](Cc1ccc(O)cc1)NC(=O)[C@H](CC(=O)O)NC(=O)[C@H](CO)NC(=O)[C@@H](NC(=O)[C@H](Cc1ccccc1)NC(=O)[C@@H](NC(=O)CNC(=O)[C@H](Cc1c[nH]cn1)NC(=O)[C@H](CO)NC(=O)[C@@H](N)Cc1c[nH]cn1)[C@@H](C)O)[C@@H](C)O)C(C)C)C(=O)N[C@@H](Cc1c[nH]c2ccccc12)C(=O)N[C@@H](CC(C)C)C(=O)N[C@@H](CC(C)C)C(=O)N[C@@H](CO)C(=O)N[C@H](C(=O)O)[C@@H](C)O)C(=O)O)C(=O)O)C(=O)O)C(=O)O` [Example 3]: 0.0105 nM. The value for `CC(=O)N[C@@H](CCC(=O)N[C@@H](CCC(=O)N[C@@H](CCC(=O)N[C@@H](CCC(=O)NCCCC[C@H](NC(=O)[C@@H](NC(=O)[C@H](Cc1ccccc1)NC(=O)[C@H](CC(=O)O)NC(=O)[C@H](CCC(N)=O)NC(=O)[C@H](C)NC(=O)[C@H](CCCNC(=N)N)NC(=O)[C@H](CCCNC(=N)N)NC(=O)[C@H](CC(C)C)NC(=O)[C@H](CC(=O)O)NC(=O)[C@H](CC(C)C)NC(=O)[C@H](Cc1ccc(O)cc1)NC(=O)[C@H](CCCNC(=N)N)NC(=O)[C@H](CO)NC(=O)[C@H](Cc1ccc(O)cc1)NC(=O)[C@H](CC(=O)O)NC(=O)[C@H](CO)NC(=O)[C@@H](NC(=O)[C@H](Cc1ccccc1)NC(=O)[C@@H](NC(=O)CNC(=O)[C@H](CCC(N)=O)NC(=O)[C@H](CO)NC(=O)[C@@H](N)Cc1c[nH]cn1)[C@@H](C)O)[C@@H](C)O)C(C)C)C(=O)N[C@@H](Cc1c[nH]c2ccccc12)C(=O)N[C@@H](CC(C)C)C(=O)N[C@@H](CC(C)C)C(=O)N[C@@H](CO)C(=O)N[C@H](C(=O)O)[C@@H](C)O)C(=O)O)C(=O)O)C(=O)O)C(=O)O` [Example 39, N^ε24-[(4S)-4-[[(4S)-4-[[(4S)-4-[[(4S)-4-acetamido-4-carboxybutanoyl]amino]-4-carboxybutanoyl]amino]-4-carboxybutanoyl]amino]-4-carboxybutanoyl]-[Arg12,Leu16,Lys24,Leu27,Ser28]-Glucagon] (H-HSQGTFTSDYSRYLDLRRAQDFVK([γGlu-γGlu-γGlu-γGlu-Ac])WLLST-OH) was 0.003 nM.
